Data reported in US20050003022A1 (priority 2002, published 2005).

Columns and labels:
[1] = system: influenza virus; set-up: species or system small mice; conditions: in vivo
[2] = system: influenza; conditions: in vivo; cited from earlier work
[3] = in vivo; cited from earlier work

Row | SMILES | small mouse protection ratio (ED50) [1] [mg/kg] | median day for alleviating influenza symptoms [2] [days] | reduction from average influenza case [2] [days] | utilization ratio of oral taken drug [3] [%]
1 | NC(=O)c1ncn([C@@H]2O[C@H](CO)[C@@H](O)[C@H]2O)n1 [Ribavirin] | 25 | – | – | –
2 | CC(=O)N[C@H]1[C@H]([C@H](O)[C@H](O)CO)OC(C(=O)O)=C[C@@H]1N=C(N)N [Zanamivir] | – | 6.5 | 1.3 | 2
